Test results as given in patent US4395405A, “Alkyl-ketohexopyranoside derivatives and method of use” (Hisamitsu Pharmaceutical Co., Inc., priority 1979, dated 1983).

Legend:
IgE antibodies [1] = assay: Formation of homocytotropic antibodies in rats, PCA (passive cutaneous anaphylaxis) reaction; format: in vivo, rats of wistar strain
Method: (§1) Effects on the formation of homocytotropic antibodies in rats
(§2) An experiment was carried out in accordance with the Tada and Okumura's method (J. Immunol., Vol. 106, p 1002, 1971).
(§3) Groups each consisting of 8-9 rats of wistar strain were used in this experiment.
(§4) As shown in Tables 2-5, to the four legs of the rats were injected 1 mg of dinitrophenylated extract of ascaris suum (DNP-As) as protein and 10^10 cells of vaccinum pertussis (B. Pertussis) for sensitization, after which the compounds of this invention were administered to the injected rats for 5 days. Eight to nine days after the sensitization, bloodletting was effected on these rats to collect their serum for estimating the amount of antibodies formed using passive cutaneous anaphylaxis (PCA) reactions and phytohemaglutinin (PHA) reactions.
(1) Estimation of the amount of antibodies by PCA reaction:
The collected serum was diluted in various concentrations and intradermally injected to other rats. Forty-eight (48) hours after the injection, 2 mg of DNP-As as protein and 0.5 ml of a 1% Evans Blue were intravenously injected into these rats to determine the dilution of the serum which induced the minimum extravasted dye. It should be noted that the symbols "*" and "**" in the following Tables indicate significant differences at risks of 5% and 1%, respectively. […]

IgG and IgM [2] = assay: Amount of antibodies formed in rats, PHA (phytohemaglutinin) reaction; format: in vivo, rats of wistar strain
Method: as §1, §2, §3, §4
(2) Estimation of the amount of antibodies by PHA reaction:
The collected serum was diluted in various concentrations and incubated with sheep red blood cells coupled with DNP-As using bis-diazoated benzydine to determine the dilution of the serum which induced the minimum hemaglutination. […]

IgE antibodies [3] = assay: Formation of homocytotropic antibodies in mice, PCA reaction; format: in vivo, mice (BALB/c strain), female; details: 100 mg/Kg/day for 5 days
Method: The collected serum was diluted in various concentrations and intradermally injected to other rats. Forty-eight (48) hours after the injection, 2 mg of DNP-As as protein and 0.5 ml of a 1% Evans Blue were intravenously injected into these rats to determine the dilution of the serum which induced the minimum extravasted dye. It should be noted that the symbols "*" and "**" in the following Tables indicate significant differences at risks of 5% and 1%, respectively.
(§5) Effects on the formation of homocytotropic antibodies in mice
(§6) Groups each consisting of 5 female mice (BALB/c strain) were used in this experiment. The mice were sensitized with 10 μg of DNP-As as protein and 3 mg of Al(OH)3, after which the test compound was administered to the sensitized mice for 5 days (at a dose of 100 mg/Kg/day). After the sensitization, a sample of serum was collected from the mice and treated in the same manner as in Experiment 1 to determine the amount of antibodies formed. […]

IgG and IgM [4] = assay: Amount of antibodies formed in mice, PHA reaction; format: in vivo, mice (BALB/c strain), female; details: 100 mg/Kg/day for 5 days
Method: The collected serum was diluted in various concentrations and incubated with sheep red blood cells coupled with DNP-As using bis-diazoated benzydine to determine the dilution of the serum which induced the minimum hemaglutination.
as §5, §6

[5] = Acute poisoning test on rats; details: rat, in vivo, three weeks
Method: (§7) Each of the test compounds was suspended in a physiological solution of sodium chloride containing 0.5% of tragacanth gum to obtain a test suspension. The test suspensions so obtained were administered to rats and mice in various ways. LD50 was calculated from test animals which died in three weeks after the start of the test.

[6] = Acute poisoning test on mice; details: mouse, in vivo, three weeks
Method: as §7

[7] = Table 2, abdominal and oral administration, 5 days, serum 8 days after sensitization, control 237 (169-337)
[8] = Table 2, abdominal and oral administration, 5 days, serum 9 days after sensitization, control 169 (119-223)
[9] = Table 4, oral administration, serum 8 days after the sensitization, control 320 (270-370)
[10] = Table 6, oral, serum 10 days after sensitization, control 256 ± 128
[11] = Table 6, oral, serum 21 days after sensitization, control 1024 ± 0
[12] = Table 6, oral, serum 30 days after sensitization, control 299 ± 43
[13] = Table 3 right half, hypodermic administration, serum 8 days after sensitization, control 269.2 (218.8-331.1)
[14] = Table 5 right half, hypodermic administration, serum 8 days after sensitization, control 3235.9 (2454.7-4265.8)
[15] = Table 7, oral, serum 10 days after sensitization, control 537.0 (436.5-660.7)
[16] = Table 10, oral, serum 10 days after, control 125.9 (95.5-166.0)
[17] = Table 11, hypodermic, serum 9 days after, control 380.2 (269.2-537.0)
[18] = Table 11, hypodermic, serum 10 days after, control 109.7 (95.5-125.9)
[19] = Table 11, hypodermic, serum 37 days after, control 1071.5 (871.0-1318.3)
[20] = Table 8, hypodermic, serum 9 days after, control 708.0 (575.4-871.0)
[21] = Table 8, hypodermic, serum 10 days after, control 537.0 (380.2-758.6)
[22] = Table 8, hypodermic, serum 37 days after, control 2818.4 (1862.1-4265.8)
[23] = Table 3 left half, hypodermic administration, serum 8 days after sensitization, control 144.5 (117.5-177.8)
[24] = Table 5 left half, hypodermic administration, serum 8 days after sensitization, control 1318.3 (933.3-1862.1)
[25] = Table 9, hypodermic, serum 37 days after, control 3467.37 (2013.72-3767.04)

Structure (SMILES)	PCA of rat: dilution of the serum which induced the minimum extravasted dye (IgE antibodies [1]; [8])	PCA of mice (serum dilution) (IgE antibodies [3]; [10])	PCA of mice (serum dilution) (IgE antibodies [3]; [11])	PCA of mice (serum dilution) (IgE antibodies [3]; [12])	PHA of rat: dilution of the serum which induced the minimum hemaglutination (IgG and IgM [2]; [14])	PCA of mice (serum dilution) (IgE antibodies [3]; [15])	PHA of mice (serum dilution) (IgG and IgM [4]; [16])	PHA of mice (serum dilution) (IgG and IgM [4]; [17])	PHA of mice (serum dilution) (IgG and IgM [4]; [18])	PHA of mice (serum dilution) (IgG and IgM [4]; [19])	PCA of mice (serum dilution) (IgE antibodies [3]; [20])	PCA of mice (serum dilution) (IgE antibodies [3]; [21])	PCA of mice (serum dilution) (IgE antibodies [3]; [22])	other results
CCCCCCOC1(CO)OCC(O)C(O)C1O [Compound No. 6, n-hexyl-β-D-fructopyranoside]	147	320	288	240										PCA of rat: dilution of the serum which induced the minimum extravasted dye (IgE antibodies [1]; [7]): 97.0; PHA of rat: dilution of the serum which induced the minimum hemaglutination (IgG and IgM [2]; [9]): 810
CC(C)CCOC1(CO)OCC(O)C(O)C1O [Compound No. 12, isopentyl-2-L-sorbopyranoside]					6025.6 (4897.8-7413.1)	269.2	109.7	218.8 (109.7-436.5)	144.5 (125.9-166.0)	1230.3 (871.0-1737.8)				PCA of rat: dilution of the serum which induced the minimum extravasted dye (IgE antibodies [1]; [13]): 234.4 (204.2-269.2)
CCCCCCOC1(CO)OCC(O)C(O)C1O [Compound No. 13, n-hexyl-α-L-sorbopyranoside]					4265.8 (2630.3-6918.3)		109.7	125.9 (83.2-190.6)	102.3 (89.1-117.5)	1148.2 (758.6-1737.8)	380.2	708.0	3235.9	
CCCCOC1(CO)OCC(O)C(O)C1O [Compound No. 9, n-butyl-α-L-sorbopyranoside]						380.2	177.8	288.4 (245.5-354.8)	102.3 (89.1-117.5)	871.0 (660.7-1148.2)	708.0	218.8	1513.6	PCA of rat: dilution of the serum which induced the minimum extravasted dye (IgE antibodies [1]; [23]): 47.9; PHA of rat: dilution of the serum which induced the minimum hemaglutination (IgG and IgM [2]; [24]): 5248.1; PCA of mice (serum dilution) (IgE antibodies [3]; [25]): 251.19
CC(C)CCOC1(CO)OCC(O)C(O)C1O [Compound No. 5, isopentyl-β-D-fructopyranoside]	90.5	316 ± 86	480 ± 142	448 ± 64										
O=P1(N(CCCl)CCCl)NCCCO1 (stereo not shown) [Cyclophosphamide, reference compound]	16.0	214 ± 103	561 ± 71	368 ± 146										
CC(C)COC1(CO)OCC(O)C(O)C1O [Compound No. 3, isobutyl-β-D-fructopyranoside]	97.0	118 ± 37	563 ± 125	256 ± 129										PCA of rat: dilution of the serum which induced the minimum extravasted dye (IgE antibodies [1]; [7]): 73.5; PHA of rat: dilution of the serum which induced the minimum hemaglutination (IgG and IgM [2]; [9]): 630
CCCOC1(CO)OCC(O)C(O)C1O [Compound No. 7, n-propyl-α-L-sorbopyranoside]						218.8		309.0 (251.2-380.2)	166.0 (134.9-204.2)	1000 (758.6-1318.3)	660.7	407.4	1995.3	PCA of rat: dilution of the serum which induced the minimum extravasted dye (IgE antibodies [1]; [23]): 67.6; PHA of rat: dilution of the serum which induced the minimum hemaglutination (IgG and IgM [2]; [24]): 5248.1; LD50 at 504 h ([5]; ip, abdominally, male): > 5000 mg/kg; LD50 at 504 h ([5]; iv, intravenously, male): > 2000 mg/kg; LD50 at 504 h ([5]; po, orally, male): > 5000 mg/kg; LD50 at 504 h ([5]; sc, hypodermically, male): > 5000 mg/kg; LD50 at 504 h ([6]; ip, abdominally, male): > 1000 mg/kg; LD50 at 504 h ([6]; iv, intravenously, male): > 2000 mg/kg; LD50 at 504 h ([6]; po, orally, male): > 5000 mg/kg; LD50 at 504 h ([6]; sc, hypodermically, male): > 5000 mg/kg
CC(C)COC1(CO)OCC(O)C(O)C1O [Compound No. 10, isobutyl-α-L-sorbopyranoside]					5248.1 (3715.4-7413.1)	501.2	109.7	154.9 (125.9-190.6)	102.3 (83.2-125.9)	1148.2 (933.3-1412.5)	537.0	708.0	1513.6	PCA of rat: dilution of the serum which induced the minimum extravasted dye (IgE antibodies [1]; [13]): 177.8 (134.9-234.4); LD50 at 504 h ([5]; ip, abdominally, female): ~2000 mg/kg; LD50 at 504 h ([5]; ip, abdominally, male): ~2000 mg/kg; LD50 at 504 h ([5]; iv, intravenously, female): 1000 to 2000 mg/kg; LD50 at 504 h ([5]; iv, intravenously, male): 1000 to 2000 mg/kg; LD50 at 504 h ([5]; po, orally, female): > 5000 mg/kg; LD50 at 504 h ([5]; po, orally, male): > 5000 mg/kg; LD50 at 504 h ([5]; sc, hypodermically, female): > 5000 mg/kg; LD50 at 504 h ([5]; sc, hypodermically, male): > 5000 mg/kg; LD50 at 504 h ([6]; ip, abdominally, female): 500 to 1000 mg/kg; LD50 at 504 h ([6]; ip, abdominally, male): 500 to 1000 mg/kg; LD50 at 504 h ([6]; iv, intravenously, female): 1000 to 2000 mg/kg; LD50 at 504 h ([6]; iv, intravenously, male): 1000 to 2000 mg/kg; LD50 at 504 h ([6]; po, orally, female): 2000 to 5000 mg/kg; LD50 at 504 h ([6]; po, orally, male): 2000 to 5000 mg/kg; LD50 at 504 h ([6]; sc, hypodermically, female): ~2000 mg/kg; LD50 at 504 h ([6]; sc, hypodermically, male): ~2000 mg/kg
CCCCCOC1(CO)OCC(O)C(O)C1O [Compound No. 11, n-pentyl-α-L-sorbopyranoside]					3467.4 (2630.3-4570.8)	501.2	177.8		109.7 (83.2-144.5)	1621.8 (1318.3-1995.3)				PCA of rat: dilution of the serum which induced the minimum extravasted dye (IgE antibodies [1]; [13]): 154.9 (134.9-177.8); PCA of mice (serum dilution) (IgE antibodies [3]; [25]): 177.83; PHA of mice (serum dilution) (IgG and IgM [4]; Table 11, hypodermic, serum 9 days after, control 380.2 (269.2-537.0), 100 mg/kg/day): 354.8 (288.4-457.1)
CCCCOC1(CO)OCC(O)C(O)C1O [Compound No. 2, n-butyl-β-D-fructopyranoside]	84.4													PCA of rat: dilution of the serum which induced the minimum extravasted dye (IgE antibodies [1]; [7]): 147; PHA of rat: dilution of the serum which induced the minimum hemaglutination (IgG and IgM [2]; [9]): 600
